Settings: in vivo

O=S(=O)(O)O [sulfuric acid]
irritation or injury of a hand put into the solution: an irritation would occur within a relatively short span of time

From patent US20020197365A1, “Highly acidic metalated mixture of inorganic acids” (priority 2001, published 2002)
